Key:
[1] = about 5 mg/kg intravenously injected; cited from earlier work
[2] = Liver lobe distribution after hepatic portal vein injection of methylene blue solution; assay type: in vivo, balb/c mice; details: about 24 hours
Method: After zoletil and rumpun were injected into the abdominal cavity of balb/c mice at a ratio of 9:1 to anesthetize them, a methylene blue solution was injected by hepatic portal vein […]. After waiting for about 24 hours for tissue fixation of the methylene blue solution, all liver lobes were isolated by sacrificing the mice. The isolated liver lobes were fixed with a 10% formalin solution, made into a paraffin block, and cut into a thickness of 5 μm to prepare a tissue section slide. Thereafter, paraffin was removed from the tissue section slide, the slide was rehydrated, and then the tissue section was stained with a Harris hematoxylin solution and an eosin solution, and observed under an optical microscope.

Structure (SMILES)	time glycyrrhizin remains in the body [1] [min]	distribution of methylene blue solution among liver lobes (image J) [2]
CC1(C)[C@@H](O[C@H]2O[C@H](C(=O)O)[C@@H](O)[C@H](O)[C@H]2O[C@@H]2O[C@H](C(=O)O)[C@@H](O)[C@H](O)[C@H]2O)CC[C@]2(C)[C@H]3C(=O)C=C4[C@@H]5C[C@@](C)(C(=O)O)CC[C@]5(C)CC[C@@]4(C)[C@]3(C)CC[C@@H]12 [glycyrrhizin]	≤ 15	–
CN(C)c1ccc2nc3ccc(=[N+](C)C)cc-3sc2c1 [methylene blue solution, methylene blue]	–	present in the largest amount in Mediate 1

— patent US20260130951A1, “GLYCYRRHIZIN-GLYCOL CHITOSAN CONJUGATE-COATED IRON OXIDE NANOPARTICLES AND USE THEREOF” (Industry-University Cooperation Foundation Hanyang …, priority 2018, published 2026)
